# Results published in patent publication US11337976B2 (Plexxikon Inc., priority 2011, dated 2022).
# Tested on: A375 melanoma cells (B-Raf V600E mutation)
# Assay: A375 (A375_P-ERK) cell activity / cell growth inhibition assay
# Format: cell-based, human
# Conditions: Homo sapiens, A-375; A375 cells (text: A375_P-ERK)
row,IC50 [µM],SMILES
1,< 1,"CN(C)S(=O)(=O)Nc1cccc(C(=O)c2c[nH]c3ncc(-c4cnc(N5CCCC5)nc4)cc23)c1F [P-0107, 3-[3-(dimethylsulfamoylamino)-2-fluoro-benzoyl]-5-(2-pyrrolidin-1-ylpyrimidin-5-yl)-1H-pyrrolo[2,3-b]pyridine]"
2,< 1,"O=C(c1cccc(NS(=O)(=O)N2CCCC2)c1F)c1c[nH]c2ncc(-c3cnc(N4CCCC4)nc3)cc12 [P-0109, N-[2-fluoro-3-[5-(2-pyrrolidin-1-ylpyrimidin-5-yl)-1H-pyrrolo[2,3-b]pyridine-3-carbonyl]phenyl]pyrrolidine-1-sulfonamide]"
3,< 1,"CN(C)S(=O)(=O)Nc1cccc(C(=O)c2c[nH]c3ncc(I)cc23)c1F [P-0110, 3-[3-(dimethylsulfamoylamino)-2-fluoro-benzoyl]-5-iodo-1H-pyrrolo[2,3-b]pyridine]"
4,< 1,"CCCN(C)S(=O)(=O)Nc1cccc(C(=O)c2c[nH]c3ncc(-c4cnc(C)nc4)cc23)c1F [P-0111, 3-[2-fluoro-3-[[methyl(propyl)sulfamoyl]amino]benzoyl]-5-(2-methylpyrimidin-5-yl)-1H-pyrrolo[2,3-b]pyridine]"
5,< 1,"Cc1ncc(-c2cnc3[nH]cc(C(=O)c4cccc(NS(=O)(=O)N(C)CC5CC5)c4F)c3c2)cn1 [P-0112, 3-[3-[[cyclopropylmethyl(methyl)sulfamoyl]amino]-2-fluoro-benzoyl]-5-(2-methylpyrimidin-5-yl)-1H-pyrrolo[2,3-b]pyridine]"
6,< 1,"CN(C)S(=O)(=O)Nc1cccc(C(=O)c2c[nH]c3ncc(-c4ccc(C5CC5)nc4)cc23)c1F [P-0113, 5-(6-cyclopropyl-3-pyridyl)-3-[3-(dimethylsulfamoylamino)-2-fluoro-benzoyl]-1H-pyrrolo[2,3-b]pyridine]"
7,< 1,"CCCN(C)S(=O)(=O)Nc1cccc(C(=O)c2c[nH]c3ncc(-c4ccc(C5CC5)nc4)cc23)c1F [P-0114, 5-(6-cyclopropyl-3-pyridyl)-3-[2-fluoro-3-[[methyl(propyl)sulfamoyl]amino]benzoyl]-1H-pyrrolo[2,3-b]pyridine]"
8,< 1,"CN(CC1CC1)S(=O)(=O)Nc1cccc(C(=O)c2c[nH]c3ncc(-c4ccc(C5CC5)nc4)cc23)c1F [P-0115, 3-[3-[[cyclopropylmethyl(methyl)sulfamoyl]amino]-2-fluoro-benzoyl]-5-(6-cyclopropyl-3-pyridyl)-1H-pyrrolo[2,3-b]pyridine]"
9,< 1,"CCCN(C)S(=O)(=O)Nc1ccc(F)c(C(=O)c2c[nH]c3ncc(-c4cnc(OC)nc4)cc23)c1F [P-0116, 3-[2,6-difluoro-3-[[methyl(propyl)sulfamoyl]amino]benzoyl]-5-(2-methoxypyrimidin-5-yl)-1H-pyrrolo[2,3-b]pyridine]"
10,> 1,"CCCNS(=O)(=O)Nc1cccc(C(=O)c2c[nH]c3ncc(I)cc23)c1F [P-0117, [2-fluoro-3-(propylsulfamoylamino)phenyl]-(5-iodo-1H-pyrrolo[2,3-b]pyridin-3-yl)methanone]"
11,< 1,"CCC(C)S(=O)(=O)Nc1cccc(C(=O)c2c[nH]c3ncc(-c4cnc(OC)nc4)cc23)c1F (stereo not shown) [P-0224, N-[2-fluoro-3-[5-(2-methoxypyrimidin-5-yl)-1H-pyrrolo[2,3-b]pyridine-3-carbonyl]phenyl]butane-2-sulfonamide]"
12,< 1,"CCC(C)S(=O)(=O)Nc1cccc(C(=O)c2c[nH]c3ncc(-c4cnc(N5CCCC5)nc4)cc23)c1F (stereo not shown) [P-0225, N-[2-fluoro-3-[5-(2-pyrrolidin-1-ylpyrimidin-5-yl)-1H-pyrrolo[2,3-b]pyridine-3-carbonyl]phenyl]butane-2-sulfonamide]"
13,< 1,"CCC(C)S(=O)(=O)Nc1cccc(C(=O)c2c[nH]c3ncc(-c4cnc(NC5CC5)nc4)cc23)c1F (stereo not shown) [P-0226, N-[3-[5-[2-(cyclopropylamino)pyrimidin-5-yl]-1H-pyrrolo[2,3-b]pyridine-3-carbonyl]-2-fluoro-phenyl]butane-2-sulfonamide]"
